Target: T1, Human CARM1 (PRMT4) (Homo sapiens, UniProt Q86X55)
T1 construct: Flag-CARM1-His; made in house; host or cells: HEK 293F cells (BacMam baculovirus)
T1 sequence (Q86X55 1-585 isoform Q86X55-1): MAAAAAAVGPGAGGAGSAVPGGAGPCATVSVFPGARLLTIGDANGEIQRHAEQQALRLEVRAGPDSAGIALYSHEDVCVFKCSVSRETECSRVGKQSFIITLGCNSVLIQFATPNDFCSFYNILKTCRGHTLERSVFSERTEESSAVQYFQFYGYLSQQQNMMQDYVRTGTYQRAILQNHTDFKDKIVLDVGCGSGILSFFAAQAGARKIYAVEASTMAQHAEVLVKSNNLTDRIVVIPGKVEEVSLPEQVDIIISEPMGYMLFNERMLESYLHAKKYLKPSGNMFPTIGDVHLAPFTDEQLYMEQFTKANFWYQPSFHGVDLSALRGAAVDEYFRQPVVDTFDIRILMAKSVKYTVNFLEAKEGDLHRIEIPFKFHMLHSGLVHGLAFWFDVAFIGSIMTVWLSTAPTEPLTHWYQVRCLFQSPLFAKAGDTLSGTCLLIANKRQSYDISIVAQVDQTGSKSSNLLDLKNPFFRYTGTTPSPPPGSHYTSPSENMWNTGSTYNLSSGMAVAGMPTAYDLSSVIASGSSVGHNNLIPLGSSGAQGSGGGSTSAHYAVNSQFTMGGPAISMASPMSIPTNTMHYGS
Test: CARM1 Biochemical Assay
From the text: General Materials. S-adenosylmethionine (SAM), S-adenosylhomocysteine (SAH), bicine, Tween20, dimethylsulfoxide (DMSO), bovine skin gelatin (BSG), sodium butyrate and Tris(2-carboxyethyl)phosphine hydrochloride solution (TCEP) were purchased from Sigma-Aldrich at the highest level of purity possible. ^3H-SAM was purchase from American Radiolabeled Chemicals with a specific activity of 80 Ci/mmol. 384-well streptavidin Flashplates were purchased from PerkinElmer.
Substrates. Peptide representative of human histone H3 residues 16-30 was synthesized with an N-terminal linker-affinity tag motif and a C-terminal amide cap by 21st Century Biochemicals. The peptide was purified by high-performance liquid chromatography (HPLC) to greater than 95% purity and confirmed by liquid chromatography mass spectrometry (LC-MS). The sequence was Biot-Ahx-[…]-amide and contained a monomethylated arginine at position 26 (SEQ ID NO.: 14).
Molecular Biology: Human CARM1 (PRMT4) (NM_199141.1) transcript clone was amplified from an HEK 293 cDNA library, incorporating a flanking 5′ sequence encoding a FLAG tag ([…]) (SEQ ID NO.:6) fused directly to Ala 2 of CARM1 and 3′ sequence encoding a hexa His sequence ([…]) (SEQ ID NO.: 15) fused directly to Ser 608. The gene sequence encoding isoform1 containing a deletion of amino acids 539-561 was amplified subsequently and subcloned into pFastBacMam (Viva Biotech).
Protein Expression. Recombinant baculovirus were generated according to Bac-to-Bac kit instructions (Life Technologies). […] Infections were carried out at 37° C. for 48 hours, harvested by centrifugation, and stored at −80° C. for purification.
Protein Purification. […] Column was washed with 500 mM NaCl in buffer A and Flag-CARM1-His was eluted with 200 ug/ml FLAG peptide in buffer A. Pooled fractions were dialyzed in 20 mM Tris, 150 mM NaCl, 5% glycerol and 1 mM DTT, pH 7.8. The purity of recovered protein was 94.
General Procedure for CARM1 Enzyme Assays on Peptide Substrates. The assays were all performed in a buffer consisting of 20 mM Bicine (pH=7.6), 1 mM TCEP, 0.005% BSG, and 0.002% Tween 20, prepared on the day of use. Compounds in 100% DMSO (1 ul) were spotted into a polypropylene 384-well V-bottom plates (Greiner) using a Platemate Plus outfitted with a 384-channel head (Thermo Scientific). DMSO (1 ul) was added to Columns 11, 12, 23, 24, rows A-H for the maximum signal control and 1 ul of SAH, a known product and inhibitor of CARM1, was added to columns 11, 12, 23, 24, rows I-P for the minimum signal control. A cocktail (40 ul) containing the CARM1 enzyme was added by Multidrop Combi (Thermo-Fisher). The compounds were allowed to incubate with CARM1 for 30 min at room temperature, then a cocktail (10 ul) containing ^3H-SAM and peptide was added to initiate the reaction (final volume=51 ul). The final concentrations of the components were as follows: CARM1 was 0.25 nM, ^3H-SAM was 30 nM, peptide was 250 nM, SAH in the minimum signal control wells was 1 mM, and the DMSO concentration was 2%. The assays were stopped by the addition of non-radiolabeled SAM (10 ul) to a final concentration of 300 uM, which dilutes the ^3H-SAM to a level where its incorporation into the peptide substrate is no longer detectable. 50 ul of the reaction in the 384-well polypropylene plate was then transferred to a 384-well Flashplate and the biotinylated peptides were allowed to bind to the streptavidin surface for at least 1 hour before being washed once with 0.1% Tween20 in a Biotek EL×405 plate washer. The plates were then read in a PerkinElmer TopCount plate reader to measure the quantity of ^3H-labeled peptide bound to the Flashplate surface, measured as disintegrations per minute (dpm) or alternatively, referred to as counts per minute (cpm).
Where dpm=disintegrations per minute, cmpd=signal in assay well, and min and max are the respective minimum and maximum signal controls. […]

[1] = PRMT4 IC50, biochemical evaluation, CARM1 (PRMT4), peptide substrate
[2] = PRMT4 biochemical evaluation (numerical), single experiment or average of multiple experiments

IC50 [1] [nM]	IC50 [2] [nM]	Compound
3010 to 10000	87.3	CNCCN(C)Cc1n[nH]c2ccc(Oc3ccc(OC(C)C)cc3)cc12 [Compound 61]
1010 to 3000	364	CNCCN(C)Cc1nn(C(C)C)c2ccc(OCc3ccc(C#N)cc3)cc12 [Compound 62]
1010 to 3000	1910	CNCCN(C)Cc1n[nH]c2ccc(OCc3cccc(C(N)=O)c3)cc12 [Compound 66]
3010 to 10000	683	CNCCN(C)Cc1n[nH]c2ccc(Oc3cccc(OC(C)C)c3)cc12 [Compound 67]
3010 to 10000	1700	CNCCN(C)Cc1n[nH]c2ccc(OCc3ccc(C(F)(F)F)cc3)cc12 [Compound 68]
3010 to 10000	4160	CNCCN(C)Cc1n[nH]c2ccc(OCc3ccc(C(N)=O)cc3)cc12 [Compound 69]
101 to 1000	3700	CNCCN(C)Cc1n[nH]c2ccc(OCc3cccc(NC(C)=O)c3)cc12 [Compound 70]
3010 to 10000	3790	CNCCN(C)Cc1n[nH]c2ccc(OCc3ccc(C(C)(C)C)cc3)cc12 [Compound 71]
101 to 1000	892	CNCCN(C)Cc1n[nH]c2ccc(OCc3cccc(C(F)(F)F)c3)cc12 [Compound 72]
101 to 1000	4590	CNCCN(C)Cc1n[nH]c2ccc(OCc3cccc(C(C)=O)c3)cc12 [Compound 73]
101 to 1000	305	CNCCN(C)Cc1n[nH]c2ccc(OCc3cccc(C(C)(C)C)c3)cc12 [Compound 74]

Compound	IC50 [1] [nM]	IC50 [2] [nM]
CCOc1ccc2[nH]nc(CN(C)CCNC)c2c1 [Compound 63]	3010 to 10000	4160
CNCCN(C)Cc1n[nH]c2ccc(OC(C)C)cc12 [Compound 64]	1010 to 3000	1960
CCCOc1ccc2[nH]nc(CN(C)CCNC)c2c1 [Compound 65]	101 to 1000	4940

Reference: US9765035B2 (priority 2013, dated 2017)
